5 compounds from ChEMBL document CHEMBL4043292, “Discovery and Optimization of Phosphopantetheine Adenylyltransferase Inhibitors with Gram-Negative Antibacterial Activity” (J Med Chem, 2018) can be followed below.

Converted amounts (≈) assume the structure as drawn. Some results are limits rather than exact numbers.

In data set [1] the target is T1, Bifunctional coenzyme A synthase (Homo sapiens) (UniProt Q13057).
T1 sequence (whole entry): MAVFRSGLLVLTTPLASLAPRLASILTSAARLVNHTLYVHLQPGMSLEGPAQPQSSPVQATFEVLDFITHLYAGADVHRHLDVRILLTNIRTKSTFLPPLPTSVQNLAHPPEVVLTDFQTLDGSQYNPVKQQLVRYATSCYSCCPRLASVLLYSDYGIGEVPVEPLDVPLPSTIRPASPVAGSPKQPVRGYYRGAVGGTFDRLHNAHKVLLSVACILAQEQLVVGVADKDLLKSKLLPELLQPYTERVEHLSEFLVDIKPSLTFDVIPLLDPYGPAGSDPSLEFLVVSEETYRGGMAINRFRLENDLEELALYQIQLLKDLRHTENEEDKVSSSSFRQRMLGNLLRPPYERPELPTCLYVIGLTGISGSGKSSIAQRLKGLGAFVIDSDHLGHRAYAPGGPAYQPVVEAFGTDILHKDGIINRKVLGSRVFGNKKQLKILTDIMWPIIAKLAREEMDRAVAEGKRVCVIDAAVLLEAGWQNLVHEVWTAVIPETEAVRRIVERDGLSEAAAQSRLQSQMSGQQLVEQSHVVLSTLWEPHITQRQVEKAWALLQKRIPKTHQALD
Description: Inhibition of human coaSY expressed in tolC deficient Escherichia coli JWK0002 assessed as bacterial growth inhibition after 20 hrs by broth microdilution method

Data set [2] in a line: physchem. Conditions: buffer, pH 7.4.
Description: Lipophilicity, log D of the compound at pH 7.4
The nature of data set [3]: physchem. Conditions: PBS.
Description: Solubility of the compound in PBS
A short description of data set [4]: in vitro. Conditions: human, not told.
Description: Efflux ratio in human microsomes
Data set [5] is described as follows: in vitro. Conditions: human, Caco-2.
Data set [6] is described as follows: in vitro. The conditions noted are these: human, Caco-2. The source holds these as a separate data set.
Description: Efflux ratio of apparent permeability across basolateral to apical over apical to basolateral side in human Caco2 cells
The subject of data set [7] is Escherichia coli. Briefly: microbe, parasite or virus in culture. The conditions noted are these: JW5503-1, 20 h.
Description: Antibacterial activity against tolC deficient Escherichia coli JW5503-1 after 20 hrs by broth microdilution method
Data set [8] has as its system Escherichia coli. As to the kind of experiment: microbe, parasite or virus in culture. The conditions noted are these: BW25113, 20 h.
Description: Antibacterial activity against Escherichia coli BW25113 after 20 hrs by broth microdilution method
The subject of data set [9] is Escherichia coli. As to the kind of experiment: microbe, parasite or virus in culture. Conditions: JW0451-2, 20 h.
Description: Antibacterial activity against acrB deficient Escherichia coli JW0451-2 after 20 hrs by broth microdilution method
The subject of data set [10] is Escherichia coli. As to the kind of experiment: microbe, parasite or virus in culture. Conditions: RFM795, 20 h.
Description: Antibacterial activity Escherichia coli RFM795 harboring frame deletion of 23 amino acids in lptD gene after 20 hrs by broth microdilution method
Data set [11] has as its system Pseudomonas aeruginosa. As to the kind of experiment: microbe, parasite or virus in culture. The conditions noted are these: PAO1, 20 h.
Description: Antibacterial activity against Pseudomonas aeruginosa PAO1 after 20 hrs by broth microdilution method
Data set [12] has as its system Pseudomonas aeruginosa. As to the kind of experiment: microbe, parasite or virus in culture. Conditions: K1119, 20 h.
Description: Antibacterial activity against mexAB deficient Pseudomonas aeruginosa K1119 after 20 hrs by broth microdilution method
Data set [13] has as its system Pseudomonas aeruginosa. Briefly: microbe, parasite or virus in culture. Conditions: ATCC 35151, 20 h.
Description: Antibacterial activity against Pseudomonas aeruginosa ATCC 35151 after 20 hrs by broth microdilution method
Data set [14] is described as follows: Inhibition of PPAT in tolC deficient Escherichia coli JW5503-1 assessed as reduction in level of CoA-SH metabolite by mass spectrometric method.
The nature of data set [15]: Inhibition of PPAT in Escherichia coli BW25113 assessed as reduction in level of CoA-SH metabolite by mass spectrometric method.
Data set [16] concerns Escherichia coli. As to the kind of experiment: Ratio of IC50 for PPAT in Escherichia coli BW25113 assessed as reduction in level of CoA-SH metabolite to IC50 for PPAT in tolC deficient Escherichia coli JW5503-1 assessed as reduction in level of CoA-SH metabolite.

Usually logD stands for lipophilicity at a set pH, counting ionised and neutral species. High values mean a more lipophilic compound, low ones a more hydrophilic compound. By solubility is commonly meant how much of the substance goes into solution per volume. A word on the efflux ratio: it is a quotient of directional permeabilities that is used to spot active efflux. Usually Papp A→B stands for how fast a substance crosses the layer from the apical side. For `COC(=O)N1CCC(Cc2cccc([C@@H](CC#N)Nc3nc4nc(C)ccc4[nH]3)c2)CC1`, the MIC is 128 µg/mL (≈ 296 µM) in [1]; not above 0.125 µg/mL with Escherichia coli [7]; 128 µg/mL (≈ 296 µM) in the data set with Escherichia coli [8]; 16 µg/mL (≈ 37 µM) in the data set with Escherichia coli [9]; 2 µg/mL (≈ 4.62 µM) in the data set on Escherichia coli [10]; more than 128 µg/mL against Pseudomonas aeruginosa [11]. This compound showed an MIC against Pseudomonas aeruginosa [12] of 32 µg/mL (≈ 74 µM). For the same compound, in the data set “physchem [2]”, the logD turned out to be 2.8. In “physchem [3]”, the solubility worked out at 158 µg/mL (≈ 365 µM). Moreover, the values for the efflux ratio in the data set “in vitro [4]” and in the data set “in vitro [6]” were 0.77 and 18, respectively. In addition, the Papp A→B in the data set “in vitro [5]” amounted to 2.3 ×10⁻⁶ cm/s.

For `Cc1cc(N2CCN(C)CC2)c2[nH]c(N[C@H](CC#N)c3cccc(Cl)c3)nc2n1`, the MIC in [1] was 128 µg/mL (≈ 312 µM); with Escherichia coli [7] it was 2 µg/mL (≈ 4.88 µM); in the data set on Escherichia coli [8] it was 64 µg/mL (≈ 156 µM); against Escherichia coli [9], 8 µg/mL (≈ 19.5 µM); against Escherichia coli [10] it was 8 µg/mL (≈ 19.5 µM); against Pseudomonas aeruginosa [11], more than 128 µg/mL. The MIC in the data set on Pseudomonas aeruginosa [13] is 128 µg/mL (≈ 312 µM); in the data set with Pseudomonas aeruginosa [12], more than 128 µg/mL.

Consider `COC(=O)N1CCC(Oc2cccc([C@@H](CC#N)Nc3nc4nc(C)cc(N5CCN(C)CC5)c4[nH]3)c2)CC1`, for which the MIC was more than 128 µg/mL in data set [1]; 4 µg/mL (≈ 7.51 µM) against Escherichia coli [7]; more than 128 µg/mL against Escherichia coli [8]; 64 µg/mL (≈ 120 µM) in the data set with Escherichia coli [9]; 64 µg/mL (≈ 120 µM) against Escherichia coli [10]; more than 128 µg/mL in the data set on Pseudomonas aeruginosa [11]. Besides, the MIC in the data set on Pseudomonas aeruginosa [13] and in the data set with Pseudomonas aeruginosa [12] was more than 128 µg/mL throughout. Moreover, the efflux ratio in “in vitro [4]” stood at 0.56.

By IC50 is commonly meant the concentration at which inhibition is half-maximal. As for `COC(=O)N1CCC(Oc2cccc([C@@H](CC#N)Nc3nc4nc(C)ccc4[nH]3)c2)CC1`, the IC50 in [14] was determined as 24 nM; in [15], 11900 nM. In the data set on Escherichia coli [16], the Ratio IC50 was 500. The MIC is more than 128 µg/mL in data set [1]; 0.25 µg/mL (≈ 0.575 µM) against Escherichia coli [7]; more than 128 µg/mL in the data set with Escherichia coli [8]; 32 µg/mL (≈ 73.6 µM) in the data set with Escherichia coli [9]; 8 µg/mL (≈ 18.4 µM) with Escherichia coli [10]; more than 128 µg/mL with Pseudomonas aeruginosa [11]. The MIC in the data set on Pseudomonas aeruginosa [13] and with Pseudomonas aeruginosa [12] was 128 µg/mL (≈ 295 µM) each time. The logD in the data set “physchem [2]” worked out at 3. In addition, the solubility in the data set “physchem [3]” amounted to 264 µg/mL (≈ 608 µM). In addition, the efflux ratio in the data set “in vitro [4]” was 0.44; in the data set “in vitro [6]” it was 48. This compound displayed a Papp A→B in “in vitro [5]” of 1 ×10⁻⁶ cm/s.

Regarding `Cc1ccc2[nH]c(N[C@H](CC#N)c3cccc(Cl)c3)nc2n1`, the IC50 in data set [14] was determined as 370 nM; in [15], 4760 nM. In addition, in the data set with Escherichia coli [16], the Ratio IC50 is 13. The MIC against Escherichia coli [7] is 4 µg/mL (≈ 12.8 µM); against Escherichia coli [8], more than 128 µg/mL.
